Laboratory results from US6585982B1, “Treatment of infertility” (NNA/S, priority 1999, dated 2003).

Experiments:
metaphase II oocytes [1] = assay: FF-MAS as adjunct to a standard FSH based IVF treatment (GnRH antagonist Cetrorelix protocol, ICSI); assay type: cell-based, human
Description: (§1) The patient underwent down regulation with recombinant FSH with an average daily dose of 225 IU starting on Day 1 or 2 of the current cycle and used a GnRH antagonist, i.e., Cetrorelix (1 mg daily, subcutaneously, one shot), in the current cycle. At least 3 follicles of 17 mm or more were present at the time of administering hCG, i.e., Profasi (10.000 IU, one shot). Follicles were aspirated and metaphase II oocytes were cultured in oocyte culture system containing standard in vitro fertilization (IVF) media (IVF 20 (which is available from Scandinavian IVF Science AB, Gothenburg, Sweden)) supplemented with human serum albumin (0.8%) and FF-MAS (5 μM). All oocytes were cultured under normal conditions at 37° C. in the incubator. Each oocyte was cultured in one well in a four-chamber culture dish as culture media system. […] Preembryos were evaluated for cleavage stage and fragmentation/morphology at 1, 2 and 3 days post ICSI. […] The patient received an estrogen, i.e., Estrofem (6 mg/daily), and a progesterone, i.e. Utrogestan (600 mg/daily, micronized, vaginal suppository), to render the endometrium lining the patient uterus responsive and ready for allowing implantation of the transferred eggs. […]

metaphase II oocytes [2] = assay: FF-MAS as adjunct to a standard FSH based IVF treatment (GnRH analog Synarel down regulation, ICSI); assay type: cell-based, human
Text: as §1, with “regulation with an GnRH analog, i.e., Synarel (nasal spray, two puffs daily), for at least 14 days (starting in the luteal phase of the previous cycle or Day 1 or 2 in the follicular phase of the current cycle) and ovarian stimulation” for “regulation”, “225 IU.” for “225 IU starting on Day 1 or 2 of the current cycle and used a GnRH antagonist, i.e., Cetrorelix (1 mg daily, subcutaneously, one shot), in the current cycle.”, “hCG, i.e. Profase” for “hCG, i.e., Profasi”, “progesterone, i.e.,” for “progesterone, i.e.”, “suppository), daily” for “suppository),”

[3] = FF-MAS 5 μM, 0.8% HSA in IVF 20 medium, 4 hours before and 20 hours after ICSI

Measured: results of the IVF procedure compared with the known procedures

CC(C)=CCC[C@@H](C)[C@H]1CC=C2C3=C(CC[C@@]21C)[C@@]1(C)CC[C@H](O)C(C)(C)[C@@H]1CC3 [FF-MAS, 4,4-dimethyl-5α-cholesta-8,14,24-triene-3β-ol]
better results: metaphase II oocytes [1]; [3] | metaphase II oocytes [1]; FF-MAS 20 μM, otherwise procedure of Example 3 | metaphase II oocytes [2]; [3] | metaphase II oocytes [2]; FF-MAS 20 μM, otherwise procedure of Example 4
